Experimental data from patent US10323051B2, “Methods for controlling depolymerization of polymer compositions” (RHODIA OPERATIONS, priority 2011, dated 2019).
Where two headings read alike, the source gives them in different places. Blank lines part the entries; values can stand above or below the compound they belong to.

Experiments:
[1] = Viscosity of THPS-(1%) polyacrylamide aqueous dispersion (OFITE viscometer, 300 rpm); assay type: physicochemical; details: for viscosity @300 rpm (shear rate 500 s-1) after 60 minutes / viscosity @300 rpm after 60 minutes: 1% polyacrylamide; for effect on depolymerization: polyacrylamide with THPS under aerobic conditions at acidic pH, inhibitor added; for viscosity @300 rpm after 60 minutes: no depolymerization inhibitor
[2] = Molecular weight determination of polymer in the presence of THPS by GPC with light scattering detection; assay type: physicochemical; details: for Mn / Mw / Polydispersity (Mw/Mn): 75 ppm THPS, 1% pol A, overnight at ambient temperature
[3] = guar or guar derivatives mixed with THPS at 10-1000 ppm
Method: The polymer(s) under investigation were weighed and dissolved in (deionized) DI water to attain a desired concentration (for example, 0.48% w/w guar, 1.0% w/w polyacrylamide). The solution was mixed thoroughly for 1 h to ensure that the polymer had fully or substantially dissolved and the polymer fully hydrated
The polymer solution as prepared above was placed in a 250 ml beaker. Viscosity was measured with an OFITE viscometer (model 900). Initial viscosity was recorded (300 rpm) (at 500 s^−1) and then an acetic acid/sodium acetate buffer added to achieve a total concentration in the polymer solution of 0.2% w/w. pH and viscosity were recorded and then the depolymerization inhibitor was added. THPS at the concentration being investigated was then added. Viscosity measurements were then made at various time intervals as recorded in the table of FIG. 1.

Compound: O=C1O[C@H]([C@@H](O)CO)C(O)=C1O [ascorbic acid]
viscosity @300 rpm (shear rate 500 s-1) after 60 minutes ([1]; 75 ppm THPS with 100 ppm ascorbic acid (rerun), initial viscosity 27.5 cP): 25.9 cP
viscosity @300 rpm (shear rate 500 s-1) after 60 minutes ([1]; 75 ppm THPS with 200 ppm ascorbic acid, initial viscosity 27.5 cP): 24.5 cP
effect on depolymerization [1]: the depolymerization is controlled or stopped
Mn ([2]; 1 ppm ascorbic acid): 1,460,000 g/mol
Mw ([2]; 1 ppm ascorbic acid): 1,770,000 g/mol
Polydispersity (Mw/Mn) ([2]; 1 ppm ascorbic acid): 1.22
Mn ([2]; 10 ppm ascorbic acid): 1,480,000 g/mol
Mw ([2]; 10 ppm ascorbic acid): 1,840,000 g/mol
Polydispersity (Mw/Mn) ([2]; 10 ppm ascorbic acid): 1.25
Mn ([2]; 50 ppm ascorbic acid): 1,590,000 g/mol
Mw ([2]; 50 ppm ascorbic acid): 1,890,000 g/mol
Polydispersity (Mw/Mn) ([2]; 50 ppm ascorbic acid): 1.19

viscosity @300 rpm (shear rate 500 s-1) after 60 minutes ([1]; 75 ppm THPS with 25 ppm hydroquinone, initial viscosity 23.8 cP): 14.6 cP
viscosity @300 rpm (shear rate 500 s-1) after 60 minutes ([1]; 75 ppm THPS with 50 ppm hydroquinone, initial viscosity 25.1 cP): 17.1 cP
Compound: Oc1ccc(O)cc1 [hydroquinone]
effect on depolymerization [1]: the depolymerization is controlled or stopped

Compound: tetrakis(hydroxymethyl)phosphonium sulfate [THPS, reference compound]
viscosity @300 rpm after 60 minutes ([1]; 50 ppm THPS, initial viscosity 23.8 cP): 9.7 cP
viscosity @300 rpm after 60 minutes ([1]; 75 ppm THPS, initial viscosity 23.8 cP): 7.3 cP
viscosity @300 rpm after 60 minutes ([1]; 100 ppm THPS, initial viscosity 23.8 cP): 3.9 cP
viscosity @300 rpm after 60 minutes ([1]; 125 ppm THPS, initial viscosity 23.8 cP): 2 cP
effect on viscosity and molecular weight ([1]; polyacrylamide or polyacrylamide-co-acrylic acid solutions mixed with THPS at 50-1000 ppm): reduction in viscosity along with a corresponding molecular weight reduction
Mn ([2]; no inhibitor): 652,000 g/mol
Mw ([2]; no inhibitor): 812,000 g/mol
Polydispersity (Mw/Mn) ([2]; no inhibitor): 1.25
Mw of THPS/polymer solution without an inhibitor relative to Mw with an inhibitor ([2]; after being left overnight): approximately half
effect on viscosity and molecular weight [3]: reduction in viscosity of the application fluid along with a corresponding molecular weight reduction
